What was measured:
[1] = system: HCMEC/D3 cells; experiment: Flow cytometry of late apoptosis by Sytox Blue staining; assay type: cell-based, human; details: any of the used BIA doses, 72 hours, vs cisplatin control
Protocol: For apoptosis assessment, […]3 cells were treated as indicated above for 72 hours with BIA at indicated doses. Cells were collected from the 6-well plates and washed three times with PBS. Then, incubated with SYTOXTM Blue nucleic acid stain (5 mM) with a dilution of 1:1000 for 15 minutes. Cells were submitted and analyzed in the CytoFLEX system and its software as indicated above.

[2] = system: G9-PCDH and G34-PCDH xenograft murine models; experiment: Immunofluorescence of brain tissue from GBM xenograft models; assay type: in vivo, mice; details: 24 hours after 20 mg/kg BIA
Protocol: For mouse brain tissue staining, brains were collected from CO2 euthanized and PBS perfused tumor-bearing mice, and fixed in 10% formalin for 72 hours on rotation in the cold. Then, brains were transferred to 30% sucrose for 3 days at 4 degrees Celsius under rotation. Before cryo-sectioning, brains were frozen at −80 degree Celsius for more than 30 minutes, embedded in Optimal Cutting Temperature (OCT) compound (Fisher) and transferred to −27 degrees Celsius to a cryostat (Leica CM1950) for sectioning (20 μm thickness). Sections were placed on slides and staining followed as indicated above. All pictures were taken using a LSM 880 Zeiss confocal microscope.
In vivo studies: For intra-cranial tumor implantation, GBM neuro-spheres were grown to 70% confluency before dissociated into single cell on the day of surgery. 50,000 cells were resuspended in 3 μl of sterile PBS and injected intracranially into the striatum (2 mm right hemisphere, 1 mm frontal, 3 mm depth from bregma) of mice under anesthesia and stereo-tactically fixed. Tumors were left to grow for approximately 2-3 weeks, depending the cell line. Animals were randomized to treatment groups. BIA injections consisted of 20 mg/kg (i.p.), except if indicated otherwise. PPRX-1701 was administered at 20 mg/kg (i.v.) via lateral tail-vein. Cisplatin injections were performed at 5 mg/kg (maximum tolerated dose, i.p.). All GBM tumor murine studies involved continuous condition and weight assessments, with endpoint considered when 20% of weight loss and/or moderate-to-high grimace scale and neurological symptoms were observed.

[3] = system: BBB spheroids; experiment: BBB spheroids staining and dextran permeability assay; assay type: cell-based, human; details: BIA 72 hours
Protocol: BBB spheroids and dextran permeability assay: BBB spheroids were grown and cultured with a FITC-conjugated (70 kDa) fluorescent dextran (Millipore Sigma) as previously reported.^51,86,87 BBB spheroids were grown for 48 hours and then treated with BIA at increasing doses for 72 hours. Then, spheroids were collected and stained as indicated above for CDH5 and F-actin (Phalloidin). In the case of fluorescent dextran incubation, BBB spheroids were collected in 1.5 mL microtubes (Eppendorf) and incubated for 3 hours at 37 degrees Celsius. Pictures were taken by confocal microscopy. For dextran permeability measurement, 21 images using Z-stack layers of 5 μm intervals for achieving a total depth of 100 μm within the sphere. Fluorescent-dextran intensity from maximal intensity projection was quantified using Image J (National Institute of Health).

[4] = system: HBMEC cells; experiment: Real-time PCR for CDH5 in HBMEC cells; assay type: cell-based, human; details: 1 μM BIA, up to 48 hours
[5] = system: G9 tumors; experiment: Platinum uptake by ICP-MS in G9 tumor-bearing mice (Example 2); assay type: in vivo; details: BiA 20 mg/kg tail vein, cisplatin 5 mg/kg 24 hours later
Protocol: Inductively Coupled Plasma-Mass Spectrometry (ICP-MS): For platinum quantitation, ICP-MS was performed in an Agilent 7900 ICP mass spectrometer and controlled using the ICP-MS MassHunter software. Machine calibration was performed using a tuning solution (Agilent), containing 1 ng/mL (1 ppb) of Li, Co, Y, Ce and Ti trace-metals. In each experiment, the desired internal standard was added to each sample and standard solution. Standard curves were prepared with potassium tetrachloroplatinate (II) (Thermo Fisher) by generating dilutions of 0.1, 1, 10, 50, 100 and 1000 parts per billion (ppb). Isotopes selected for platinum detection were Pt^195. Performance reports were registered daily for calibration and accuracy records.
For the assessment of the effects of indirubin on intratumoral accumulation of platinum, G9 tumors were implanted intracranially according to the protocols described above. Cisplatin (5 mg/kg) was injected via the tail vein 24 hours post-BIA injection (20 mg/kg vial tail vein), and accumulation measured after a further 5 hours.

[6] = system: HCMEC/D3 cells; experiment: Western blot of HCMEC/D3 cells; assay type: cell-based, human
Protocol: Western blot: HCMEC/D3 and GBM cell lysates were collected in RIPA Buffer (Thermo Fisher Scientific) supplemented with 1× protease/phosphatase inhibitor cocktail (Cell Signaling). Lysate collection from murine tumor tissue samples (˜30 mg) was performed under homogenization using 23G and 26G needles. Total protein concentration was measured using Pierce 660 nm Protein Assay Reagent (Thermo Fisher Scientific) at 660 nm absorbance in Molecular Devices SpectraMax M2 plate reader. Samples were incubated in 1× Laemmli sample buffer (BioRad) at 95 degrees Celsius for 5 minutes before loading onto 10% Mini-PROTEAN TGX precast protein gel (BioRad). PageRuler Plus Pre-stained Protein Ladder (Thermo Fisher Scientific) was used as ladder. Appropriate secondary antibodies, Goat anti-mouse-HRP (Sigma) or Goat anti-rabbit-HRP (Sigma) in 5% milk in 1×TBST with 1:5000 dilution.

[7] = Hydrophobicity / dissolution in physiological solutions; assay type: physicochemical; details: difficult to dissolve in physiological solutions
[8] = system: HCMEC/D3 cells; experiment: Real-time PCR for CDH5 in HCMEC/D3 cells; assay type: cell-based, human; details: 1 μM BIA, up to 48 hours
Protocol: Real-time PCR: Total RNA from GBM and HCMEC/D3 cells was obtained and processed as indicated above. For cDNA generation, we used 1 μg of RNA and processed with the iScript™ cDNA synthesis kit (BioRad), following the protocol indicated by the provider. All primers were designed using NCBI Primer-Blast tool. Detailed information on primer sequences can be found in FIG. 25 (Supplementary Table 3). Gene expression levels were quantified using PowerUp SYBR Green Master Mix (Applied Biosciences) on QuantStudio 6 Pro System (Applied Biosciences), normalized by housekeeping gene GAPDH expression and represented as relative expression using comparative ΔΔCT method.

## CC(=O)ON=C1C(=C2C(=O)Nc3cc(Br)ccc32)Nc2ccccc21 [BIA, 6-bromoindirubin acetoxime]
[1]
  late apoptosis/necrosis: did not show late apoptosis/necrosis
[2]
  CDH5 expression in contra-lateral healthy brain regions: did not observe significant changes in expression of CDH5
  CDH5 in CD31+ endothelial cells and CDH5+ tumor cells: striking decrease of CDH5
[2]; G9-PCDH xenograft
  Claudin-5 staining in tissue: no visible differences in Claudin-5 staining
  ZO-1 expression in tissue: mild reductions of ZO-1 expression
[3]
  CDH5 expression in BBB spheroids (IF): decreased the expression of CDH5 in a dose-dependent manner
  F-actin in BBB spheroids (Phalloidin): reduced considerably
[3]; dextran 3 hours
  FITC-dextran (70 kDa) permeability of BBB spheroids: dose-dependent increase in permeability
[4]
  CDH5 expression at the transcriptional level: decreased expression
[5]
  in vivo uptake of platinum in healthy mouse brain: not in healthy mouse brain
[5]; measured after 5 hours
  in vivo uptake of platinum in tumor tissue: significantly increases the in vivo uptake of platinum
[6]; 1 μM BIA, remained for 2 days
  time of maximum reduction of CDH5 protein levels post-BIA addition: 12 h
[6]; BIA 1 μM, 48 hours
  protein levels of CAV1 or MFSD2A: did not show any changes of protein levels
[7]
  hydrophobicity: highly hydrophobic
[8]
  CDH5 expression at the transcriptional level: decreased expression

Source: US20240358678A1, “METHODS AND COMPOSITIONS FOR ENHANCING CHEMOTHERAPEUTIC DRUG UPTAKE INTO BRAIN TUMORS” (Brown University, priority 2023, published 2024)
